{"source": "ChEMBL document CHEMBL4507324", "about": "(2021)", "settings_in_all_cases": "Compound concentration 100.0 nM", "key": {"[1]": {"molecular_target": "AP2-associated protein kinase 1 (Homo sapiens) (UniProt Q2M2I8)"}, "[2]": {"system": "Tyrosine-protein kinase ABL1 (Homo sapiens), P00519 [H396P]"}, "[3]": {"molecular_target": "Activin receptor type-1B (Homo sapiens) (UniProt P36896)"}, "[4]": {"molecular_target": "Activin receptor type-2A (Homo sapiens) (UniProt P27037)"}, "[5]": {"molecular_target": "Atypical kinase COQ8B, mitochondrial (Homo sapiens) (UniProt Q96D53)"}, "[6]": {"system": "ALK tyrosine kinase receptor (Homo sapiens), Q9UM73 [L1196M]", "sequence (Q9UM73 whole entry L1196M, looked up)": "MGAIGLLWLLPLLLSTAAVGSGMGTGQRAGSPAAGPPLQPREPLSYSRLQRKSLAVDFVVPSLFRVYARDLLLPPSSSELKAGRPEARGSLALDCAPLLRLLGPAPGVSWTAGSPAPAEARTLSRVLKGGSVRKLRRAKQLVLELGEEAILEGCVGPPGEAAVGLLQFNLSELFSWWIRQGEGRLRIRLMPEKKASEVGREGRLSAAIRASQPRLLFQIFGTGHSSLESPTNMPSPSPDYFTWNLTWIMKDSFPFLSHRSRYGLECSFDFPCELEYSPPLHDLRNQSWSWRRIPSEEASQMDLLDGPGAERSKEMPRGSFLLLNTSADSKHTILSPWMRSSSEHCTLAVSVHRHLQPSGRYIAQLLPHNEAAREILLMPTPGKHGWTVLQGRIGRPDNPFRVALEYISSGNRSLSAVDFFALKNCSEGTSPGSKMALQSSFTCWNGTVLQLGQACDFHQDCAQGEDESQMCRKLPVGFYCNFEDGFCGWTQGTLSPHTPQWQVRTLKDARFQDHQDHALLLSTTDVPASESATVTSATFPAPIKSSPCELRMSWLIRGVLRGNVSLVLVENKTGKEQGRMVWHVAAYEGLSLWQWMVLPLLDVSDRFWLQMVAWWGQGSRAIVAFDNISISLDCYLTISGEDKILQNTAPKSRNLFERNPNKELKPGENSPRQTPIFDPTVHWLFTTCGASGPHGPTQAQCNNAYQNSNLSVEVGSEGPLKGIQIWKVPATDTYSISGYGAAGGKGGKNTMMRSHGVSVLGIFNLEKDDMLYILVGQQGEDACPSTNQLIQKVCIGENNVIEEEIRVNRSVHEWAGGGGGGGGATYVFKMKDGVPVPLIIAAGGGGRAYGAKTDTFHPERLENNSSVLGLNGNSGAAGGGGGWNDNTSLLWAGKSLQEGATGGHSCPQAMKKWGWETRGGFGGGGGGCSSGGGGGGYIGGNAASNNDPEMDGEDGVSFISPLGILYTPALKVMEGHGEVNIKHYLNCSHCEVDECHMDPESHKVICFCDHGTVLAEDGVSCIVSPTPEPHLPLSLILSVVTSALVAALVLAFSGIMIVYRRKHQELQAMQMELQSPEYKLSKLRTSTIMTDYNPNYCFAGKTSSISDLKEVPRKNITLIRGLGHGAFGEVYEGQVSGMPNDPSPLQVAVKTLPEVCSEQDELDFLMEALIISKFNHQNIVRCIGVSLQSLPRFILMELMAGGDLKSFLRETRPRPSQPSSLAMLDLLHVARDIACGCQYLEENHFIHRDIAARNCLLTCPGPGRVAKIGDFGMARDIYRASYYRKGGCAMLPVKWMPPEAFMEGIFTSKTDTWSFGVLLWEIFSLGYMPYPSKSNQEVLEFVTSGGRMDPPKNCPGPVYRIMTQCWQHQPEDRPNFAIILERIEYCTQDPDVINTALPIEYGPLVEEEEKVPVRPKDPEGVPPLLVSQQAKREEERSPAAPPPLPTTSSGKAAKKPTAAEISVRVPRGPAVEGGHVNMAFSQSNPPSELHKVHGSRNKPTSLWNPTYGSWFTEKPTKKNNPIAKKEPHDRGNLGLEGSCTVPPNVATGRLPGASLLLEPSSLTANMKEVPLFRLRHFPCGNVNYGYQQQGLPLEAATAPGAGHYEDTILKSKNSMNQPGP"}, "[7]": {"molecular_target": "Calcium/calmodulin-dependent protein kinase type 1B (Homo sapiens) (UniProt Q6P2M8)"}, "[8]": {"molecular_target": "Calcium/calmodulin-dependent protein kinase type II subunit beta (Homo sapiens) (UniProt Q13554)"}, "[9]": {"molecular_target": "Calcium/calmodulin-dependent protein kinase type IV (Homo sapiens) (UniProt Q16566)"}, "[10]": {"molecular_target": "Cyclin-dependent kinase 4 (Homo sapiens) (UniProt P11802)"}, "[11]": {"molecular_target": "Macrophage colony-stimulating factor 1 receptor (Homo sapiens) (UniProt P07333)"}, "[12]": {"molecular_target": "Ephrin type-A receptor 7 (Homo sapiens) (UniProt Q15375)"}, "[13]": {"molecular_target": "Mitogen-activated protein kinase 7 (Homo sapiens) (UniProt Q13164)"}, "[14]": {"molecular_target": "Fibroblast growth factor receptor 3 (Homo sapiens) (UniProt P22607)", "sequence (P22607 23-806 limits assumed)": "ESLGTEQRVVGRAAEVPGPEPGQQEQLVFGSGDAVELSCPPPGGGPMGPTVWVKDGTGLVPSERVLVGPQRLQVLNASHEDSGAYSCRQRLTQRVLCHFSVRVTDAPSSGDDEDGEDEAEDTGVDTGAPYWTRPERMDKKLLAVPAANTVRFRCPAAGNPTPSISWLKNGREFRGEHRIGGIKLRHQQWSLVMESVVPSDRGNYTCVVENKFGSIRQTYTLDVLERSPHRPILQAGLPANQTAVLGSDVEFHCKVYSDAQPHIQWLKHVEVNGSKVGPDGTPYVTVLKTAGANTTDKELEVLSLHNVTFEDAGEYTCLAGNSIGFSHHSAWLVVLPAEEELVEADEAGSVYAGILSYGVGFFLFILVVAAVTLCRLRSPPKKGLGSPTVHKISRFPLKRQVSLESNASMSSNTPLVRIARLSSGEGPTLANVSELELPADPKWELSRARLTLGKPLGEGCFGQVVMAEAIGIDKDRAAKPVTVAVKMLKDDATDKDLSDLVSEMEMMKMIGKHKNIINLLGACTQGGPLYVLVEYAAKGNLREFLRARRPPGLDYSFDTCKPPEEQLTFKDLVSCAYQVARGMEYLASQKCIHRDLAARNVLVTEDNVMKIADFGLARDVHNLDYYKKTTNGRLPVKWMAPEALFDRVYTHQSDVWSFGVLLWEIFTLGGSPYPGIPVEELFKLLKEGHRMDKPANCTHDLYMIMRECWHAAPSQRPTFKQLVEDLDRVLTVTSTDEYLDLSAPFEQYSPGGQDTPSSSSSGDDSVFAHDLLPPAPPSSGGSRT"}, "[15]": {"molecular_target": "Receptor-type tyrosine-protein kinase FLT3 (Homo sapiens) (UniProt P36888)"}, "[16]": {"molecular_target": "Interleukin-1 receptor-associated kinase 1 (Homo sapiens) (UniProt P51617)"}, "[17]": {"molecular_target": "Tyrosine-protein kinase JAK1 (Homo sapiens) (UniProt P23458)"}, "[18]": {"system": "Mast/stem cell growth factor receptor Kit (Homo sapiens), P10721 [D816H]"}, "[19]": {"molecular_target": "Tyrosine-protein kinase Lck (Homo sapiens) (UniProt P06239)"}, "[20]": {"molecular_target": "LIM domain kinase 1 (Homo sapiens) (UniProt P53667)", "sequence (P53667 whole entry, looked up, the tested form may be a part)": "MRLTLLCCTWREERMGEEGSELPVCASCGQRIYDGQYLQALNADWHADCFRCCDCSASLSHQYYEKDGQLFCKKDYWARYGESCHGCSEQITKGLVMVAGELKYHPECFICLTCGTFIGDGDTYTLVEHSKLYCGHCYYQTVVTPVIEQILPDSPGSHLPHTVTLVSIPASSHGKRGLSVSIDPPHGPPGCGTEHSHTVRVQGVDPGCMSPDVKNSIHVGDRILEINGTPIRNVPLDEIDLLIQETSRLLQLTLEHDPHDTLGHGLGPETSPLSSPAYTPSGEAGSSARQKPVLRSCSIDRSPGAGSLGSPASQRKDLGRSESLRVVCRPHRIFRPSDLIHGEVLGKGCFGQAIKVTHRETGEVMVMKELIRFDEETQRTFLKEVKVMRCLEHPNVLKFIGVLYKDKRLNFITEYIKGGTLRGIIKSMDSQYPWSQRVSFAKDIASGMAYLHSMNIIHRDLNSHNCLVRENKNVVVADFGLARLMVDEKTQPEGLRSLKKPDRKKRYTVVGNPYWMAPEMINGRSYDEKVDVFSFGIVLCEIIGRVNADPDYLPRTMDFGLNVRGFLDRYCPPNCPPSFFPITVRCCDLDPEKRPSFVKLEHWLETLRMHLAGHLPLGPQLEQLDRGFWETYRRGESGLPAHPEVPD"}, "[21]": {"molecular_target": "LIM domain kinase 2 (Homo sapiens) (UniProt P53671)"}, "[22]": {"molecular_target": "Mitogen-activated protein kinase kinase kinase 13 (Homo sapiens) (UniProt O43283)", "sequence (O43283 whole entry)": "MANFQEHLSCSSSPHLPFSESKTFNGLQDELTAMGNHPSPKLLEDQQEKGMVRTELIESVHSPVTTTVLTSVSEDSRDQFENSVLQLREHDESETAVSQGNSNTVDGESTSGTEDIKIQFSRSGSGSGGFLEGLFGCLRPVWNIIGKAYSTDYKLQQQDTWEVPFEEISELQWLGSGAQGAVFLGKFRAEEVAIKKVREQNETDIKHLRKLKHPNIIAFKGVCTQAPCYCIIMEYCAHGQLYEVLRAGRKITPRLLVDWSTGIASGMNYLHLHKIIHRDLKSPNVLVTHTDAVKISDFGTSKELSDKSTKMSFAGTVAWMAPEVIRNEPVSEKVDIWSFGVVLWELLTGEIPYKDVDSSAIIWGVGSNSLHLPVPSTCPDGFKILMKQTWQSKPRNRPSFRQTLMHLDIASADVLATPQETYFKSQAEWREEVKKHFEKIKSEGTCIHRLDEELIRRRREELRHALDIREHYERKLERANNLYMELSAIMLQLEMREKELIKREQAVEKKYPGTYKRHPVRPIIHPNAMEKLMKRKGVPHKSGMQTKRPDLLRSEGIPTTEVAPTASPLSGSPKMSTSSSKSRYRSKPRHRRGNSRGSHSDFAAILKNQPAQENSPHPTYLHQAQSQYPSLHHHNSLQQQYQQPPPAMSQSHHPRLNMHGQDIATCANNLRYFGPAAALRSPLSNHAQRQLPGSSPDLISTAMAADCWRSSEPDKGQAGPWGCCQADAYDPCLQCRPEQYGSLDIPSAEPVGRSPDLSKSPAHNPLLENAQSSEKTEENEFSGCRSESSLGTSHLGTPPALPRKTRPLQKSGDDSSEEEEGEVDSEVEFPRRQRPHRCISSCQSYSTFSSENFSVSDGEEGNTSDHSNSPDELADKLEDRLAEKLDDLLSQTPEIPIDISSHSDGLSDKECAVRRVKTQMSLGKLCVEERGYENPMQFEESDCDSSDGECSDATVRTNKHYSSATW"}, "[23]": {"molecular_target": "Microtubule-associated serine/threonine-protein kinase 1 (Homo sapiens) (UniProt Q9Y2H9)"}, "[24]": {"molecular_target": "Serine/threonine-protein kinase MRCK beta (Homo sapiens) (UniProt Q9Y5S2)"}, "[25]": {"molecular_target": "Serine/threonine-protein kinase Nek2 (Homo sapiens) (UniProt P51955)"}, "[26]": {"molecular_target": "Serine/threonine-protein kinase PLK1 (Homo sapiens) (UniProt P53350)"}, "[27]": {"molecular_target": "Protein kinase C iota type (Homo sapiens) (UniProt P41743)"}, "[28]": {"molecular_target": "Protein kinase C theta type (Homo sapiens) (UniProt Q04759)"}, "[29]": {"molecular_target": "Serine/threonine-protein kinase D3 (Homo sapiens) (UniProt O94806)"}, "[30]": {"molecular_target": "cAMP-dependent protein kinase catalytic subunit PRKX (Homo sapiens) (UniProt P51817)"}, "[31]": {"molecular_target": "Proto-oncogene tyrosine-protein kinase receptor Ret (Homo sapiens) (UniProt P07949)"}, "[32]": {"system": "Proto-oncogene tyrosine-protein kinase receptor Ret (Homo sapiens), P07949 [V804L]", "sequence (P07949 whole entry V804L)": "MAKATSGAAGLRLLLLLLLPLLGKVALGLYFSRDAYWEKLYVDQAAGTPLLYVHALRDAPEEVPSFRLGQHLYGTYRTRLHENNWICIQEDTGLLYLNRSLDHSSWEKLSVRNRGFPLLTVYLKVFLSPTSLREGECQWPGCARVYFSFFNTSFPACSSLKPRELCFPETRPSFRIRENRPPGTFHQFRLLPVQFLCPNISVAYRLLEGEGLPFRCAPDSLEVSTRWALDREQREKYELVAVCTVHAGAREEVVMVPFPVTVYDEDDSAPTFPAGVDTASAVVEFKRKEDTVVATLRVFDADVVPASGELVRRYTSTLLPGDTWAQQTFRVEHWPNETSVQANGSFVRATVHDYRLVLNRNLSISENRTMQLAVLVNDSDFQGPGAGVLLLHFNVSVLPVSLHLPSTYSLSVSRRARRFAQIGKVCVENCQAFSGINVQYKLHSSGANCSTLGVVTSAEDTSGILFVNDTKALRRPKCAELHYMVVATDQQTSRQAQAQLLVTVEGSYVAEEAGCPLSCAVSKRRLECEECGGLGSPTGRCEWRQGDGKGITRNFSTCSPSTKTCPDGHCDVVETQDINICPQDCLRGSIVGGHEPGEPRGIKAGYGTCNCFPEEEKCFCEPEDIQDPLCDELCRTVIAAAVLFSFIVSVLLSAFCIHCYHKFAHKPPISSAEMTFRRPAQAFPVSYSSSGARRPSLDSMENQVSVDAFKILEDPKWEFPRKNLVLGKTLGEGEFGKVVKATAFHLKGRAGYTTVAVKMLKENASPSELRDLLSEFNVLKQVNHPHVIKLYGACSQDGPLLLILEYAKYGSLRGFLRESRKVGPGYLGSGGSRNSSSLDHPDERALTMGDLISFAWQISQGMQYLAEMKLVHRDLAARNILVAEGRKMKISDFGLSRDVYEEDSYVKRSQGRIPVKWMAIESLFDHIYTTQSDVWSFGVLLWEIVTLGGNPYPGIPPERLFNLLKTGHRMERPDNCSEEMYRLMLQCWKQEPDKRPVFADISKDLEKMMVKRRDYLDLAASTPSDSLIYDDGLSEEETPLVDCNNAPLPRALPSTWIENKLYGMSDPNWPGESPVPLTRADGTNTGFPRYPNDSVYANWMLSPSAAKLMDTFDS"}, "[33]": {"molecular_target": "Serine/threonine-protein kinase RIO3 (Homo sapiens) (UniProt O14730)"}, "[34]": {"molecular_target": "Rho-associated protein kinase 2 (Homo sapiens) (UniProt O75116)"}, "[35]": {"molecular_target": "Ribosomal protein S6 kinase alpha-4 (Homo sapiens) (UniProt O75676)"}, "[36]": {"molecular_target": "Ribosomal protein S6 kinase alpha-1 (Homo sapiens) (UniProt Q15418)"}, "[37]": {"molecular_target": "Ribosomal protein S6 kinase alpha-6 (Homo sapiens) (UniProt Q9UK32)"}, "[38]": {"molecular_target": "Serine/threonine-protein kinase 36 (Homo sapiens) (UniProt Q9NRP7)"}, "[39]": {"molecular_target": "STE20/SPS1-related proline-alanine-rich protein kinase (Homo sapiens) (UniProt Q9UEW8)"}, "[40]": {"molecular_target": "Serine/threonine-protein kinase TAO1 (Homo sapiens) (UniProt Q7L7X3)"}, "[41]": {"molecular_target": "Serine/threonine-protein kinase TAO3 (Homo sapiens) (UniProt Q9H2K8)"}, "[42]": {"molecular_target": "Serine/threonine-protein kinase TBK1 (Homo sapiens) (UniProt Q9UHD2)"}, "[43]": {"molecular_target": "NT-3 growth factor receptor (Homo sapiens) (UniProt Q16288)"}, "[44]": {"molecular_target": "Serine/threonine-protein kinase VRK2 (Homo sapiens) (UniProt Q86Y07)"}, "[45]": {"molecular_target": "Serine/threonine-protein kinase 25 (Homo sapiens) (UniProt O00506)"}}, "data": [{"smiles": "CS(=O)(=O)N1CCCC(NC(=O)[C@H](CCC2CCCCC2)NC(=O)c2ccc(CNc3ncnc4c3nnn4-c3ccccc3)cc2)C1", "note": "(stereo not given in full) [SR-301]", "values": [{"measurement": "residual activity", "setting": "[1]", "result": 90, "unit": "%"}, {"measurement": "residual activity", "setting": "[2]", "result": 100, "unit": "%"}, {"measurement": "residual activity", "setting": "[3]", "result": 94, "unit": "%"}, {"measurement": "residual activity", "setting": "[4]", "result": 68, "unit": "%"}, {"measurement": "residual activity", "setting": "[5]", "result": 100, "unit": "%"}, {"measurement": "residual activity", "setting": "[6]", "result": 100, "unit": "%"}, {"measurement": "residual activity", "setting": "[7]", "result": 100, "unit": "%"}, {"measurement": "residual activity", "setting": "[8]", "result": 100, "unit": "%"}, {"measurement": "residual activity", "setting": "[9]", "result": 98, "unit": "%"}, {"measurement": "residual activity", "setting": "[10]", "result": 100, "unit": "%"}, {"measurement": "residual activity", "setting": "[11]", "result": 100, "unit": "%"}, {"measurement": "residual activity", "setting": "[12]", "result": 98, "unit": "%"}, {"measurement": "residual activity", "setting": "[13]", "result": 94, "unit": "%"}, {"measurement": "residual activity", "setting": "[14]", "result": 100, "unit": "%"}, {"measurement": "residual activity", "setting": "[15]", "result": 97, "unit": "%"}, {"measurement": "residual activity", "setting": "[16]", "result": 100, "unit": "%"}, {"measurement": "residual activity", "setting": "[17]", "result": 100, "unit": "%"}, {"measurement": "residual activity", "setting": "[18]", "result": 68, "unit": "%"}, {"measurement": "residual activity", "setting": "[19]", "result": 100, "unit": "%"}, {"measurement": "residual activity", "setting": "[20]", "result": 100, "unit": "%"}, {"measurement": "residual activity", "setting": "[21]", "result": 100, "unit": "%"}, {"measurement": "residual activity", "setting": "[22]", "result": 100, "unit": "%"}, {"measurement": "residual activity", "setting": "[23]", "result": 100, "unit": "%"}, {"measurement": "residual activity", "setting": "[24]", "result": 90, "unit": "%"}, {"measurement": "residual activity", "setting": "[25]", "result": 100, "unit": "%"}, {"measurement": "residual activity", "setting": "[26]", "result": 80, "unit": "%"}, {"measurement": "residual activity", "setting": "[27]", "result": 100, "unit": "%"}, {"measurement": "residual activity", "setting": "[28]", "result": 90, "unit": "%"}, {"measurement": "residual activity", "setting": "[29]", "result": 100, "unit": "%"}, {"measurement": "residual activity", "setting": "[30]", "result": 100, "unit": "%"}, {"measurement": "residual activity", "setting": "[31]", "result": 87, "unit": "%"}, {"measurement": "residual activity", "setting": "[32]", "result": 83, "unit": "%"}, {"measurement": "residual activity", "setting": "[33]", "result": 88, "unit": "%"}, {"measurement": "residual activity", "setting": "[34]", "result": 100, "unit": "%"}, {"measurement": "residual activity", "setting": "[35]", "result": 86, "unit": "%"}, {"measurement": "residual activity", "setting": "[36]", "result": 100, "unit": "%"}, {"measurement": "residual activity", "setting": "[37]", "result": 100, "unit": "%"}, {"measurement": "residual activity", "setting": "[38]", "result": 97, "unit": "%"}, {"measurement": "residual activity", "setting": "[39]", "result": 100, "unit": "%"}, {"measurement": "residual activity", "setting": "[40]", "result": 100, "unit": "%"}, {"measurement": "residual activity", "setting": "[41]", "result": 100, "unit": "%"}, {"measurement": "residual activity", "setting": "[42]", "result": 88, "unit": "%"}, {"measurement": "residual activity", "setting": "[43]", "result": 86, "unit": "%"}, {"measurement": "residual activity", "setting": "[44]", "result": 91, "unit": "%"}, {"measurement": "residual activity", "setting": "[45]", "result": 90, "unit": "%"}]}, {"smiles": "CS(=O)(=O)N1CCCC(NC(=O)[C@H](CCC2CCCCC2)NC(=O)c2ccc(CNC(=O)c3cnc4ccccn34)cc2)C1", "note": "(stereo not given in full) [SR-302]", "values": [{"measurement": "residual activity", "setting": "[1]", "result": 92, "unit": "%"}, {"measurement": "residual activity", "setting": "[2]", "result": 100, "unit": "%"}, {"measurement": "residual activity", "setting": "[3]", "result": 96, "unit": "%"}, {"measurement": "residual activity", "setting": "[4]", "result": 100, "unit": "%"}, {"measurement": "residual activity", "setting": "[5]", "result": 100, "unit": "%"}, {"measurement": "residual activity", "setting": "[6]", "result": 94, "unit": "%"}, {"measurement": "residual activity", "setting": "[7]", "result": 77, "unit": "%"}, {"measurement": "residual activity", "setting": "[8]", "result": 100, "unit": "%"}, {"measurement": "residual activity", "setting": "[9]", "result": 94, "unit": "%"}, {"measurement": "residual activity", "setting": "[10]", "result": 100, "unit": "%"}, {"measurement": "residual activity", "setting": "[11]", "result": 65, "unit": "%"}, {"measurement": "residual activity", "setting": "[12]", "result": 96, "unit": "%"}, {"measurement": "residual activity", "setting": "[13]", "result": 94, "unit": "%"}, {"measurement": "residual activity", "setting": "[14]", "result": 100, "unit": "%"}, {"measurement": "residual activity", "setting": "[15]", "result": 93, "unit": "%"}, {"measurement": "residual activity", "setting": "[16]", "result": 100, "unit": "%"}, {"measurement": "residual activity", "setting": "[17]", "result": 64, "unit": "%"}, {"measurement": "residual activity", "setting": "[18]", "result": 44, "unit": "%"}, {"measurement": "residual activity", "setting": "[19]", "result": 83, "unit": "%"}, {"measurement": "residual activity", "setting": "[20]", "result": 75, "unit": "%"}, {"measurement": "residual activity", "setting": "[21]", "result": 92, "unit": "%"}, {"measurement": "residual activity", "setting": "[22]", "result": 74, "unit": "%"}, {"measurement": "residual activity", "setting": "[23]", "result": 94, "unit": "%"}, {"measurement": "residual activity", "setting": "[24]", "result": 100, "unit": "%"}, {"measurement": "residual activity", "setting": "[25]", "result": 86, "unit": "%"}, {"measurement": "residual activity", "setting": "[26]", "result": 100, "unit": "%"}, {"measurement": "residual activity", "setting": "[27]", "result": 94, "unit": "%"}, {"measurement": "residual activity", "setting": "[28]", "result": 97, "unit": "%"}, {"measurement": "residual activity", "setting": "[29]", "result": 90, "unit": "%"}, {"measurement": "residual activity", "setting": "[30]", "result": 65, "unit": "%"}, {"measurement": "residual activity", "setting": "[31]", "result": 85, "unit": "%"}, {"measurement": "residual activity", "setting": "[32]", "result": 98, "unit": "%"}, {"measurement": "residual activity", "setting": "[33]", "result": 97, "unit": "%"}, {"measurement": "residual activity", "setting": "[34]", "result": 100, "unit": "%"}, {"measurement": "residual activity", "setting": "[35]", "result": 97, "unit": "%"}, {"measurement": "residual activity", "setting": "[36]", "result": 74, "unit": "%"}, {"measurement": "residual activity", "setting": "[37]", "result": 82, "unit": "%"}, {"measurement": "residual activity", "setting": "[38]", "result": 100, "unit": "%"}, {"measurement": "residual activity", "setting": "[39]", "result": 88, "unit": "%"}, {"measurement": "residual activity", "setting": "[40]", "result": 88, "unit": "%"}, {"measurement": "residual activity", "setting": "[41]", "result": 83, "unit": "%"}, {"measurement": "residual activity", "setting": "[42]", "result": 75, "unit": "%"}, {"measurement": "residual activity", "setting": "[43]", "result": 88, "unit": "%"}, {"measurement": "residual activity", "setting": "[44]", "result": 76, "unit": "%"}, {"measurement": "residual activity", "setting": "[45]", "result": 100, "unit": "%"}]}]}
